Reference: ChEMBL document CHEMBL5257028, “Recent advances in the discovery of heparanase inhibitors as anti-cancer agents” (Eur J Med Chem, 2016)
One block for each compound: values may come before it.

Key:
[1] = Anti-angiogenic activity in human endothelial cells assessed as reduction in cell growth incubated for 11 days by PECAM-1 staining based image analysis; details: 264 h
[2] = test system: HeLa; assay: Cytotoxicity against human HeLa cells assessed as growth inhibition; assay type: functional, cell-based
[3] = test system: B16-F10; assay: Antimigratory activity against mouse B16-F10 cells assessed as inhibition on cell migration
[4] = biological target: T1, P-selectin (Mus musculus, UniProt Q01102); assay: Inhibition of mouse P-selectin assessed as inhibition of adhesion to human LS180 cells to immobilized P-selectin incubated for 1 hrs by ELISA; assay type: cell-based
T1 sequence (Q01102 whole entry): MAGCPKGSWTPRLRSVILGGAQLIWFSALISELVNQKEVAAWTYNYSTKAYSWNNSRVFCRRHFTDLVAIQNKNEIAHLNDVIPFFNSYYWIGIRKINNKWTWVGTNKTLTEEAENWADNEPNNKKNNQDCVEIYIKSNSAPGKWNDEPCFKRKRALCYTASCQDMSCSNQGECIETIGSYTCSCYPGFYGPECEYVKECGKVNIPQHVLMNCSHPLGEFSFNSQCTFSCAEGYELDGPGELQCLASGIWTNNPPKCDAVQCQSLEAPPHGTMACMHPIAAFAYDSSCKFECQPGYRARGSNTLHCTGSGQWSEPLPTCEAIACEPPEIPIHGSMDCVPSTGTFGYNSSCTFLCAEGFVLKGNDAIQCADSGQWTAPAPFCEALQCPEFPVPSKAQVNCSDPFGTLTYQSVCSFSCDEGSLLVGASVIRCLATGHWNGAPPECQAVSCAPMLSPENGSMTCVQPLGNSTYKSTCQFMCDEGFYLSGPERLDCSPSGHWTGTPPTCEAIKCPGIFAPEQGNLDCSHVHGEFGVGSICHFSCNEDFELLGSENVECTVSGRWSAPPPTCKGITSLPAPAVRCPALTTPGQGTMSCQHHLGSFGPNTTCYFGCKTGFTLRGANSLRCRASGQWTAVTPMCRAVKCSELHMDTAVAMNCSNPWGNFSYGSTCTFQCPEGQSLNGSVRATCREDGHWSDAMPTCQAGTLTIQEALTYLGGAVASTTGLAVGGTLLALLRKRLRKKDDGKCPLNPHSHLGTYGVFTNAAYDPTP

[5] = biological target: T2, Heparanase (Homo sapiens) (UniProt Q9Y251); assay: Inhibition of recombinant human heparanase at 5 ug/ml incubated for 4 hrs by beta-scintillation counter analysis relative to control; details: dose 5.0 µg/ml
T2 sequence (whole entry): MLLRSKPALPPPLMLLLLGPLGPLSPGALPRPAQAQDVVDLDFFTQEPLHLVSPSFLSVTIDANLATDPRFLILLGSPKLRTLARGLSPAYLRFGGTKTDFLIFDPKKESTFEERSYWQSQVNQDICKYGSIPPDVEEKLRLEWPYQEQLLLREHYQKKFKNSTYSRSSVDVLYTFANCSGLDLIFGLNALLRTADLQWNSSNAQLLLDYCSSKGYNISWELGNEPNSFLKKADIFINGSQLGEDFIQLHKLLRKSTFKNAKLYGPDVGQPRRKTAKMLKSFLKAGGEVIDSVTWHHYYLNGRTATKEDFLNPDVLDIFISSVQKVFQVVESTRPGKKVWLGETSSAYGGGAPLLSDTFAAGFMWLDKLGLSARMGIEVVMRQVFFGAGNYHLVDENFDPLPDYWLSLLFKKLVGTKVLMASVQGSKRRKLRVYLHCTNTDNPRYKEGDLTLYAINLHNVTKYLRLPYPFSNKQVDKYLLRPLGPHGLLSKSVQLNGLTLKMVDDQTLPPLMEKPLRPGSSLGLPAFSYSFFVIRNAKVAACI

[6] = Half life in mouse; assay type: ADME, organism-based; details: in vivo

Structure (SMILES): O=C(O)Cc1ccc2oc(-c3ccc(/C=C/C(=O)Nc4ccc(Cl)cc4Cl)cc3F)nc2c1
IC50 [1]: 2000 nM

Structure (SMILES): COc1ccc(N2C(=O)c3ccc(C(=O)O)cc3C2=O)cc1-c1nc2cc(-c3ccc4c(c3)OCO4)ccc2o1
IC50 [1]: 3000 nM

Structure (SMILES): COc1ccc(C2CNC(c3ccccc3F)OC23CCCCC3)cc1 (configuration not stated)
IC50 [2]: 48.2 µM

IC50 [3]: 30 µM
Structure (SMILES): CCCCCCCCCCCCCCCc1c(O[C@H]2O[C@H](C(=O)OC)[C@@H](O)[C@H](O)[C@H]2O)ccc(O)c1C(=O)Oc1cc(C)c(C(=O)O)c(O)c1

IC50 [3]: 15 µM
Structure (SMILES): CCCCCCCCCCCCCCCc1c(O[C@H]2O[C@H](C(=O)O)[C@@H](O)[C@H](O)[C@H]2O)ccc(O)c1C(=O)Oc1cc(C)c(C(=O)O)c(O)c1

Structure (SMILES): O=C(O)c1ccc2c(c1)C(=O)N(c1cccc(-c3nc4ccccc4o3)c1)C2=O
IC50 [1]: 40000 nM

IC50 [4]: 58.2 µM
Structure (SMILES): O=S(=O)(O)OC[C@@H]1O[C@@H](O[C@@H]2[C@@H](OS(=O)(=O)O)[C@H](OS(=O)(=O)O)C(C3O[C@H](COS(=O)(=O)O)[C@@H](O[C@H]4O[C@H](COS(=O)(=O)O)[C@@H](O[C@H]5O[C@H](COS(=O)(=O)O)[C@@H](OS(=O)(=O)O)[C@H](OS(=O)(=O)O)[C@H]5OS(=O)(=O)O)[C@H](OS(=O)(=O)O)[C@H]4OS(=O)(=O)O)[C@H](OS(=O)(=O)O)[C@H]3OS(=O)(=O)O)O[C@H]2COS(=O)(=O)O)[C@@H](OS(=O)(=O)O)[C@H](OS(=O)(=O)O)[C@H]1O[C@@H]1O[C@@H](COS(=O)(=O)O)[C@H](OS(=O)(=O)O)[C@@H](OS(=O)(=O)O)[C@@H]1OS(=O)(=O)O (stereo in doubt; form 1) [listing 1 of 2 here]

inhibition [5]: 85%
Structure (SMILES): O=S(=O)(O)OC[C@@H]1O[C@@H](O[C@@H]2[C@@H](OS(=O)(=O)O)[C@H](OS(=O)(=O)O)C(C3O[C@H](COS(=O)(=O)O)[C@@H](O[C@H]4O[C@H](COS(=O)(=O)O)[C@@H](O[C@H]5O[C@H](COS(=O)(=O)O)[C@@H](OS(=O)(=O)O)[C@H](OS(=O)(=O)O)[C@H]5OS(=O)(=O)O)[C@H](OS(=O)(=O)O)[C@H]4OS(=O)(=O)O)[C@H](OS(=O)(=O)O)[C@H]3OS(=O)(=O)O)O[C@H]2COS(=O)(=O)O)[C@@H](OS(=O)(=O)O)[C@H](OS(=O)(=O)O)[C@H]1O[C@@H]1O[C@@H](COS(=O)(=O)O)[C@H](OS(=O)(=O)O)[C@@H](OS(=O)(=O)O)[C@@H]1OS(=O)(=O)O (stereo in doubt; form 1) [listing 2 of 2 here]

inhibition [5]: 58%
Structure (SMILES): O=S(=O)(O)OC[C@@H]1O[C@@H](O[C@@H]2[C@@H](OS(=O)(=O)O)[C@H](OS(=O)(=O)O)C(C3O[C@H](COS(=O)(=O)O)[C@@H](O[C@H]4O[C@H](COS(=O)(=O)O)[C@@H](O[C@H]5O[C@H](COS(=O)(=O)O)[C@@H](OS(=O)(=O)O)[C@H](OS(=O)(=O)O)[C@H]5OS(=O)(=O)O)[C@H](OS(=O)(=O)O)[C@H]4OS(=O)(=O)O)[C@H](OS(=O)(=O)O)[C@H]3OS(=O)(=O)O)O[C@H]2COS(=O)(=O)O)[C@@H](OS(=O)(=O)O)[C@H](OS(=O)(=O)O)[C@H]1O[C@@H]1O[C@@H](COS(=O)(=O)O)[C@H](OS(=O)(=O)O)[C@@H](OS(=O)(=O)O)[C@@H]1OS(=O)(=O)O (stereo in doubt; form 2)

Structure (SMILES): CCCNc1ccc(N2C(=O)c3ccc(C(=O)O)cc3C2=O)cc1-c1nc2cc(-c3ccc(Br)cc3)ccc2o1
IC50 [1]: 250 nM

half-life [6]: 30 min
Structure (SMILES): O=C(O)Cc1nc(-c2ccc(-c3ccc(NC(=O)/C=C/c4ccc(Br)cc4)cc3Cl)o2)cs1
IC50 [1]: 1000 nM
